What was measured:
Assay type in all cases: cell-based
keratinocytes = assay: cytotoxicity test based on keratinocytes (MTT); conditions: for Cell vitality Mean: keratinocytes, 24 hours, MTT
Description: Embodiment 1, cytotoxicity test based on keratinocytes. Set up 8 concentration gradients, and set up 3 repeating holes under each concentration. At the same time, solvent control hole, zero adjustment hole (KC2500) and positive control hole (PC, 4% Dimethyl sulfoxide, DMSO) are set up in the experiment. After incubation for 24 hours, the cell viability is detected by MTT method, and the maximum safe concentration of cell administration is screened. The MTT test results are shown in Table 1, in which the GraphPad Prism Program software is used for mapping, and T-test statistical analysis is used among all groups. P-value<0.05 indicates significant difference, and P-value<0.01 indicates extremely significant difference. According to the results of MTT assay, the concentration near the inflection point of cell vitality is selected, and after incubation and culture for 24 hours, the cell morphology is observed under the inverted microscope and photographed (20×), and the morphological detection results are shown in FIG. 2.

MC1R = assay: whitening gene test based on melanocytes (qRT-PCR), MC1R; conditions: 100 μM, 24 h
Description: (§1) 2. Whitening gene test based on melanocytes. First, the cytotoxicity of melanocytes is tested, and then the experimental design is carried out, and a blank control group and a sample group are set up. The detection indexes are MC1R (melanocortin receptor), MITF (melanogenesis transcription factor), TYR (melanin synthesis and transport related gene) and TYP-1 (tyrosinase related protein). RNA extraction, reverse transcription and fluorescence quantitative PCR are carried out, and the results are calculated by 2^−ΔΔCT method.
(§2) Embodiment 4, whitening gene test based on melanocytes.
(§3) Gene detection process: after 24 hours of incubation, the cells are sampled, and RNA extraction, reverse transcription and fluorescence quantitative PCR detection are carried out according to the kit instructions, and the results are calculated by 2^−ΔΔΔCT method. When statistical analysis is carried out by T-Test method, significance is represented by *, P-value<0.05 is represented by *, and P-value<0.01 is represented by * *.

Claudin-1 = assay: moisturizing gene test based on keratinocytes (qRT-PCR), Claudin-1; conditions: 5 μM, 24 h
Description: (§4) 1. Moisturizing gene test based on keratinocytes. First, the cytotoxicity of keratinocytes is tested, and then the experimental design is carried out, and a blank control group and a sample group are set up. The detection indexes are AQP3 (aquaporin), CD44 (cell-surface glycoproteins), Filaggrin (protein), claudin-1 (tight junction protein) and HAS2 (hyaluronic acid synthetase). RNA extraction, reverse transcription and fluorescence quantitative PCR are carried out, and the results are calculated by 2^−ΔΔCT method.
(§5) Embodiment 3, moisturizing gene test based on keratinocytes.
(§6) Gene detection process: after incubation for 24 hours, the cells are sampled, and RNA extraction, reverse transcription and fluorescence quantitative PCR detection are carried out according to the kit instruction, and the results are calculated by 2^−ΔΔΔCT method. When statistical analysis is carried out by T-Test method, significance is represented by *, P-value<0.05 is represented by *, and P-value<0.01 is represented by * *.

HAS2 = assay: moisturizing gene test based on keratinocytes (qRT-PCR), HAS2; conditions: 5 μM, 24 h
Description: as §4, §5, §6

MITF = assay: whitening gene test based on melanocytes (qRT-PCR), MITF; conditions: 100 μM, 24 h
Description: as §1, §2, §3

IL-1α = assay: anti-inflammatory test of keratinocytes stimulated by UVB, IL-1α ELISA; conditions: for IL-1α Decreased ratio (compared to NC) / IL-1α Average concentration: 24 h; for IL-1α Average concentration: ELISA of culture supernatant
Excerpt: (§7) 3. Anti-inflammatory test based on UVB (ultraviolet radiation b) stimulation of keratinocytes. The blank control (oil-soluble), solvent control (oil-soluble), positive control and sample groups are grouped in the experiment. The detection indexes are TNFα (a pro-inflammatory factors, the NF-κB signaling pathway mediates and initiates the transcription of TNFα (abbreviation for tumor necrosis factor alpha), and after TNFα is synthesized, it binds to its receptor and in turn activates the NF-κB signaling pathway) and IL1-α (a pro-inflammatory factor being non-hydrophobic polypeptide, which is secreted out of cells after cell membrane damage, and then the pro-inflammatory factor binds to its corresponding receptor IL1R and activates NF-κB to induce inflammatory cascade reaction), the detection and analysis are performed according to the operating manual of the TNFα and IL1-α kits.
(§8) TNFα and IL1-α expression detection process: after 24 hours of incubation, the cell culture supernatant is collected, and the detection and analysis are performed according to the operating instructions of the TNFα and IL1-α kit. When using the T-Test method for statistical analysis, the NC group is compared with the BC group, and the significance is indicated by #, P-value<0.05 is indicated as #, P-value<0.01 is indicated as ##; sample group and positive control group are compared with NC group, and significance is represented by *, P-value<0.05 is represented by *, P-value<0.01 is represented by * *.

melanocytes = assay: cytotoxicity test based on melanocytes (MTT); conditions: for Cell vitality Mean: melanocytes, 24 hours
Description: Embodiment 2, cytotoxicity test based on melanocytes. Set up 8 concentration gradients, and set up 3 repeating holes under each concentration. At the same time, solvent control well, Medium-254 well and positive control well (PC, 8% DMSO) are set up in the experiment. After incubation for 24 hours, the cell viability is detected by MTT method, and the maximum safe concentration of cell administration is screened.

Filaggrin = assay: moisturizing gene test based on keratinocytes (qRT-PCR), Filaggrin; conditions: 5 μM, 24 h
Description: as §4, §5, §6

AQP3 gene = assay: moisturizing gene test based on keratinocytes (qRT-PCR), AQP3; conditions: 5 μM, 24 h
Description: as §4, §5
AQP3 aquaporin in the detection index, located on the cell membrane, has the function of transporting water and plays an important role in the process of skin moisturizing.
as §6

CD44 = assay: moisturizing gene test based on keratinocytes (qRT-PCR), CD44; conditions: 5 μM, 24 h
Description: as §4, §5, §6

TRP-1 = assay: whitening gene test based on melanocytes (qRT-PCR), TRP-1; conditions: 100 μM, 24 h
Description: as §1, §2, §3

TNFα = assay: anti-inflammatory test of keratinocytes stimulated by UVB, TNFα ELISA; conditions: for TNFα Decreased ratio (compared to NC) / TNFα Average concentration: 24 h; for TNFα Average concentration: ELISA of culture supernatant
Excerpt: as §7
Embodiment 5, anti-inflammatory test of keratinocytes stimulated by UVB.
as §8

TYR = assay: whitening gene test based on melanocytes (qRT-PCR), TYR; conditions: 100 μM, 24 h
Description: as §1, §2, §3

[1] = 5 μM, compared with the positive control group (so in the source), P-value<0.01

COc1ccc(CCNC(=O)/C=C/c2ccccc2)cc1OC [WGX50, (E)-N[2-(3,4-dimethoxyphenyl)ethyl]-3-phenylacrylamide]
cytotoxicity to keratinocytes (keratinocytes; in the concentration range of 5 μM, MTT and morphological results): no cytotoxicity
Cell vitality Mean (keratinocytes; 0.5 μM): 106.81%
Cell vitality Mean (keratinocytes; 1 μM): 93.72%
Cell vitality Mean (keratinocytes; 2.5 μM): 93.60%
Cell vitality Mean (keratinocytes; 5 μM): 93.01%
Cell vitality Mean (keratinocytes; 10 μM): 84.00%
Cell vitality Mean (keratinocytes; 25 μM): 66.77%
Cell vitality Mean (keratinocytes; 50 μM): 57.35%
Cell vitality Mean (keratinocytes; 100 μM): 50.36%
expression of MC1R gene in melanocytes compared with the blank control group (MC1R; P-value<0.01): significantly inhibits
MC1R Increased ratio (compared to BC) (MC1R; qRT-PCR): 47.2%
MC1R gene expression Mean (2^−ΔΔCT) (MC1R; qRT-PCR): 0.528
Claudin-1 Increased ratio (compared to BC) (Claudin-1): 17.50%
Claudin-1 gene expression Mean (2^−ΔΔCT) (Claudin-1): 1.182
HAS2 Increased ratio (compared to BC) (HAS2): −14.70%
HAS2 gene expression Mean (2^−ΔΔCT) (HAS2): 0.898
expression of MITF gene in melanocytes compared with the blank control group (MITF; P-value<0.01): significantly inhibits
MITF Increased ratio (compared to BC) (MITF; qRT-PCR): 57.8%
MITF gene expression Mean (2^−ΔΔCT) (MITF; qRT-PCR): 0.432
IL-1α Decreased ratio (compared to NC) (IL-1α; 5 μM): 67%
IL-1α Average concentration (IL-1α; 5 μM): 43.65 pg/mL
secretion of IL-1α (IL-1α; [1]): decreases significantly
cytotoxicity to melanocytes (melanocytes; in the concentration range of 100 μM): no cytotoxicity
Cell vitality Mean (melanocytes; 0.5 μM): 105.78%
Cell vitality Mean (melanocytes; 1 μM): 99.02%
Cell vitality Mean (melanocytes; 2.5 μM): 96.68%
Cell vitality Mean (melanocytes; 5 μM): 95.56%
Cell vitality Mean (melanocytes; 10 μM): 99.51%
Cell vitality Mean (melanocytes; 25 μM): 99.51%
Cell vitality Mean (melanocytes; 50 μM): 108.86%
Cell vitality Mean (melanocytes; 100 μM): 96.62%
Filaggrin Increased ratio (compared to BC) (Filaggrin): 7.20%
Filaggrin gene expression Mean (2^−ΔΔCT) (Filaggrin): 1.101
expression of AQP3 gene in keratinocytes compared with the blank control group (AQP3 gene; P-value<0.01): significantly promotes
AQP3 Increased ratio (compared to BC) (AQP3 gene; qRT-PCR): 34.20%
AQP3 gene expression Mean (2^−ΔΔCT) (AQP3 gene; qRT-PCR): 1.345
CD44 Increased ratio (compared to BC) (CD44): −21.90%
CD44 gene expression Mean (2^−ΔΔCT) (CD44): 0.785
expression of TYP-1 gene in melanocytes compared with the blank control group (TRP-1; P-value<0.01): significantly inhibits
TRP-1 Increased ratio (compared to BC) (TRP-1; qRT-PCR): 70.10%
TRP-1 gene expression Mean (2^−ΔΔCT) (TRP-1; qRT-PCR): 0.304
TNFα Decreased ratio (compared to NC) (TNFα; 5 μM): 85%
TNFα Average concentration (TNFα; 5 μM): 18.97 pg/mL
secretion of TNFα (TNFα; [1]): decreases significantly
expression of TYR gene in melanocytes compared with the blank control group (TYR; P-value<0.01): significantly inhibits
TYR Increased ratio (compared to BC) (TYR; qRT-PCR): 51.8%
TYR gene expression Mean (2^−ΔΔCT) (TYR; qRT-PCR): 0.488

C[C@@H]1C[C@H]2[C@@H]3CCC4=CC(=O)C=C[C@]4(C)[C@@]3(F)[C@@H](O)C[C@]2(C)[C@@]1(O)C(=O)CO [PC, Dexamethasone, reference compound]
IL-1α Decreased ratio (compared to NC) (IL-1α; 100 μg/mL): 29%
IL-1α Average concentration (IL-1α; 100 μg/mL): 93.97 pg/mL
secretion of IL-1α compared with the solvent control group (IL-1α; 100 μg/mL, P-Value<0.05): decreases significantly
TNFα Decreased ratio (compared to NC) (TNFα; 100 μg/mL): 94%
TNFα Average concentration (TNFα; 100 μg/mL): 8.34 pg/mL
secretion of TNFα compared with the solvent control group (TNFα; 100 μg/mL, P-value<0.01): decreases significantly

C[S+](C)[O-] [DMSO, Dimethyl sulfoxide, reference compound]
Cell vitality Mean (keratinocytes; positive control 4% DMSO): 30.27%
Cell vitality Mean (melanocytes; positive control 8% DMSO): 24.23%
